Experimental data taken from patent US8399490B2, “Insecticides” (Syngenta Crop Protection LLC, priority 2007, dated 2013).
Like-named read-outs stand apart in the source and are kept apart here.

How the values were obtained:
[1] = system: Plutella xylostella (diamond back moth); assay: Example B3: Plutella xylostella (larvicide, feeding/residual contact activity, preventive), artificial diet MTP; format: in vivo; conditions: 120 h, L2 larvae on artificial diet, 5 days incubation
Protocol: Plutella xylostella (Diamond Back Moth) (Larvicide, Feeding/Residual Contact Activity, Preventive) 24-well microtiter plate (MTP) with artificial diet is treated with test solutions by pipetting. After drying, the MTP's are infested with larvae (L2) (10-15 per well). After an incubation period of 5 days, samples are checked for larval mortality, antifeedant and growth regulation.

[2] = system: Myzus persicae (green peach aphid); conditions: foliar, 144 h, read-out: activity
[3] = system: Spodoptera littoralis (Egyptian cotton leafworm); assay: Example B1: Activity against Spodoptera littoralis (larvicide, feeding/residual contact activity, preventive), cotton leaf discs; format: in vivo; conditions: foliar, 72 h, L1 larvae on cotton leaf discs, 3 days after treatment
Source text: Activity Against Spodoptera littoralis (Egyptian Cotton Leafworm)
(Larvicide, Feeding/Residual Contact Activity, Preventive)
The samples are checked for mortality, repellent effect, feeding behaviour, and growth regulation 3 days after treatment. In this test, compounds listed in Table P above show good activity. In particular compounds P.1, P.2, P.3, P.4, P.5, P.6, P.7, P.8, P.9, P.10, P.11, P.12, P.13, P.14, P.15, P.16, P.17, P.18, P.19, P.20, P.21, P.22, P.23, P.24, P.25, P.26, P.27, P.28, P.29, P.30, P.31, P.32, P.33, P.34, P.35, P.36, P.37, P.38, P.39, P.40, P.41, P.42, P.43, P.44, P.46, P.50, P.51, P.52, P.55, P.56, P.57, P.58, P.59, P.60, P61, P.66, P.67, P.68, P.69, P.70, P.71, P.72, P.73, P.74, P.75, P.76, P.77, P.78, P.83, P.84, P.87 and P.88 show an activity of over 80% at a concentration of 400 ppm.

[4] = system: Heliothis virescens (tobacco budworm); assay: Example B2: Activity against Heliothis virescens (ovo-larvicide, feeding/contact activity, curative), eggs on artificial diet; format: in vivo; conditions: 96 h, 4 days incubation
Protocol: Activity Against Heliothis virescens (Tobacco Budworm) (Ovo-Larvicide, Feeding/Contact Activity, Curative) Eggs (0-24 h old) are placed in 24-well microtiter plate on artificial diet and treated with test solutions by pipetting. After an incubation period of 4 days, samples are checked for egg mortality, larval mortality, and growth regulation.

[5] = system: Diabrotica balteata (corn root worm); assay: Example B4: Diabrotica balteata (larvicide, feeding/residual contact activity, preventive), artificial diet MTP; format: in vivo; conditions: 120 h, L2 larvae on artificial diet, 5 days incubation
Protocol: Diabrotica balteata (Corn Root Worm) (Larvicide, Feeding/Residual Contact Activity, Preventive) 24-well microtiter plate (MTP) with artificial diet is treated with test solutions by pipetting. After drying, the MTP's are infested with larvae (L2) (6-10 per well). After an incubation period of 5 days, samples are checked for larval mortality, antifeedant and growth regulation.

[6] = system: Myzus persicae (green peach aphid); assay: Example B6: Activity against Myzus persicae (mixed population, systemic/feeding activity, curative), pea seedling roots in test solution; conditions: 144 h, read-out: activity

Measured: pest or weed control at 400 ppm

CCNC(=O)c1c(NC(=O)c2cc(C(F)F)nn2-c2ncccc2Cl)c(Cl)cc2c1OCO2 [P.5]
> 80%: [1] | [2] | [3] | [4]

COc1cc(C(=O)Nc2c(Cl)cc3c(c2C(=O)NC(C)C)OCO3)n(-c2ncccc2Cl)n1 [P.12]
> 80%: [1] | [2] | [3] | [4]

O=C(NC1(C2CC2)CC1)c1c(NC(=O)c2cc(Br)nn2-c2ncccc2Cl)c(Cl)cc2c1OC(F)(F)O2 [P.21]
not listed: [6]
> 80%: all other assays above

COc1cc(C(=O)Nc2c(C)cc3c(c2C(=O)NC(C)C)OC(F)(F)O3)n(-c2ncccc2Cl)n1 [P.36]
> 80%: [1] | [5] | [3] | [4]

CNC(=O)c1c(NC(=O)c2cc(OC)nn2-c2ncccc2Cl)c(Cl)cc2c1OC(F)(F)O2 [P.37]
> 80%: [1] | [5] | [3] | [4]

CNC(=O)c1c(NC(=O)c2cc(OC)nn2-c2ncccc2Cl)c(Br)cc2c1OC(F)(F)O2 [P.39]
> 80%: [1] | [5] | [3] | [4]

COc1cc(C(=O)Nc2c(Br)cc3c(c2C(=O)NC(C)C)OC(F)(F)O3)n(-c2ncccc2Cl)n1 [P.40]
> 80%: [1] | [5] | [3] | [4]

CNC(=O)c1c(NC(=O)c2cc(Br)nn2-c2ncccc2Cl)c(Br)cc2c1OC(F)(F)O2 [P.41]
> 80%: [1] | [5] | [3] | [4]

CC(C)NC(=O)c1c(NC(=O)c2cc(Br)nn2-c2ncccc2Cl)c(Br)cc2c1OC(F)(F)O2 [P.42]
> 80%: [1] | [5] | [3] | [4]

CNC(=O)c1c(NC(=O)c2cc(C(F)(F)F)nn2-c2ncccc2Cl)c(C)cc2c1OC(F)(F)O2 [P.43]
> 80%: [1] | [5] | [3] | [4]

Cc1cc2c(c(C(=O)NC(C)C)c1NC(=O)c1cc(C(F)(F)F)nn1-c1ncccc1Cl)OC(F)(F)O2 [P.44]
> 80%: [1] | [5] | [3] | [4]

Cc1cc2c(c(C(=O)NCC3CC3)c1NC(=O)c1cc(C(F)(F)F)nn1-c1ncccc1Cl)OC(F)(F)O2 [P.46]
> 80%: [1] | [5] | [3] | [4]

CC(C)NC(=O)c1c(NC(=O)c2cc(OCC(F)(F)F)nn2-c2ncccc2Cl)c(Cl)cc2c1OCO2 [P.57]
> 80%: [1] | [5] | [3] | [4]

CC(C)NC(=O)c1c(NC(=O)c2cc(Br)nn2-c2ncccc2Cl)ccc2c1S(=O)(=O)C(C)C2 (stereo not shown) [P.60]
> 80%: [1] | [5] | [3] | [4]

COc1cc(C(=O)Nc2c(Cl)cc3c(c2C(=O)NC(C)C)C(O)CC3)n(-c2ncccc2Cl)n1 (stereo not shown) [P.66]
> 80%: [1] | [6] | [3] | [4]

Cc1cc2c(c(C(=O)NC(C)C)c1NC(=O)c1cc(C(F)(F)F)nn1-c1ncccc1Cl)OCO2 [P.67, 5-methyl-6-{[2-(3-chloro-pyridin-2-yl)-5-trifluoromethyl-2H-pyrazole-3-carbonyl]-amino}-2,4-dioxolane-benzoic acid isopropylamide]
> 80%: [1] | [5] | [3] | [4]

CCNC(=O)c1c(NC(=O)c2cc(C(F)(F)F)nn2-c2ncccc2Cl)c(C)cc2c1OCO2 [P.68]
> 80%: [1] | [5] | [3] | [4]

Cc1cc2c(c(C(=O)NC3(C4CC4)CC3)c1NC(=O)c1cc(C(F)(F)F)nn1-c1ncccc1Cl)OCO2 [P.69]
> 80%: [1] | [5] | [3] | [4]

Cc1cc2c(c(C(=O)NC(C)(C)C)c1NC(=O)c1cc(C(F)(F)F)nn1-c1ncccc1Cl)OCO2 [P.70]
> 80%: [1] | [5] | [3] | [4]

Cc1cc2c(c(C(=O)NC3(C4CC4)CC3)c1NC(=O)c1cc(C(F)F)nn1-c1ncccc1Cl)OCO2 [P.71]
> 80%: [1] | [2] | [3] | [4]

Cc1cc2c(c(C(=O)NC(C)(C)C)c1NC(=O)c1cc(C(F)F)nn1-c1ncccc1Cl)OCO2 [P.73]
> 80%: [1] | [5] | [3] | [4]

Cc1cc2c(c(C(=O)NC(C)C)c1NC(=O)c1cc(Br)nn1-c1ncccc1Cl)OCO2 [P.75]
> 80%: [1] | [5] | [3] | [4]

CCNC(=O)c1c(NC(=O)c2cc(OC)nn2-c2ncccc2Cl)c(C)cc2c1OCO2 [P.76]
> 80%: [1] | [6] | [3] | [4]

Cc1cc2c(c(C(=O)NC3(C4CC4)CC3)c1NC(=O)c1cc(Br)nn1-c1ncccc1Cl)OCO2 [P.78]
> 80%: [1] | [5] | [3] | [4]

CNC(=O)c1c(NC(=O)c2cc(C(F)F)nn2-c2ncccc2Cl)c(Br)cc2c1OC(C)C2 (stereo not shown) [P.83]
not listed: [6]
> 80%: all other assays above

CNC(=O)c1c(NC(=O)c2cc(Br)nn2-c2ncccc2Cl)c(Br)cc2c1S(=O)(=O)C(C)C2 (stereo not shown) [P.88]
> 80%: [1] | [2] | [3] | [4]
